Data reported in patent US20240343727A1, “PYRIDAZINONE OR PYRIDINONE COMPOUNDS, PREPARATION METHODS AND USES THEREOF” (InventisBio Co., Ltd., priority 2021, published 2024).

Target: T1, PARP7 (Homo sapiens, UniProt Q7Z3E1)
T1 sequence (Q7Z3E1 1-657): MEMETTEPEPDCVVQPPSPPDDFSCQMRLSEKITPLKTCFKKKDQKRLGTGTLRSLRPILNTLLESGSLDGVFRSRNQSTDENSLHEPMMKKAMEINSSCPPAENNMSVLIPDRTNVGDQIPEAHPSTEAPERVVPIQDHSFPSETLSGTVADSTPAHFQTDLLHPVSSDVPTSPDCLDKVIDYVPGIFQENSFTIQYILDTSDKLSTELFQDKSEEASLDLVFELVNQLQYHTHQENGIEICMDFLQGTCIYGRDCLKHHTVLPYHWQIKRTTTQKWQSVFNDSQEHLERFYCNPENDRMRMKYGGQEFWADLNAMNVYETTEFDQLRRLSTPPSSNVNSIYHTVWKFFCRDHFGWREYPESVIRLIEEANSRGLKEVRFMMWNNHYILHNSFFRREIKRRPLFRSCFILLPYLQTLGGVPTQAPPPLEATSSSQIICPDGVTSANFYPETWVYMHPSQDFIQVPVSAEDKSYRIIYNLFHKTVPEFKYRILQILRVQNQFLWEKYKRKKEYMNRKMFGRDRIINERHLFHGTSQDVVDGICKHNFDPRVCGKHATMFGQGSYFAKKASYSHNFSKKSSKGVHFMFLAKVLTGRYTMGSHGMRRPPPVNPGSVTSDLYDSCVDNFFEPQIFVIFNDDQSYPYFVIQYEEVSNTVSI
Assay: PARP7 TR-FRET assay (binding, displacement of biotinylated Probe A)
Settings: 6 nM PARP7, 2 nM Probe A, 25° C., 30 min
How it was run: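 Compound displacement of biotinylated Probe A (2 nM) from PARP7 (6 nM) measured by TR-FRET in HEPES pH 8.0 buffer, 30 min at 25° C. Detection used ULight-anti 6xHis (4 nM) plus Eu-streptavidin (0.25 nM) for 30 min, reading the 665/615 nm ratio. % inhibition was taken against DMSO and no-enzyme wells, and IC50 from a Hill fit.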

Row | IC50 [nM] | SMILES
1 | < 100 | CC(=O)N1CCN(C(=O)c2cccc(Oc3n[nH]c(=O)c(C(F)(F)F)c3N3CC4(CCC4)C3)c2)CC1 [Compound 160]
2 | < 100 | N#Cc1ccc(N2CCN(C(=O)c3cccc(Oc4n[nH]c(=O)c(C(F)(F)F)c4N4CC5(CCC5)C4)c3)CC2)nc1 [Compound 161]
3 | < 100 | O=C(c1cccc(Oc2n[nH]c(=O)c(C(F)(F)F)c2N2CC3(CCCO3)C2)c1)N1CCN(c2ncc(C(F)(F)F)cn2)CC1 [Compound 162]
4 | < 100 | COC1CN(c2c(Oc3cccc(C(=O)N4CCN(c5ncc(C(F)(F)F)cn5)CC4)c3)n[nH]c(=O)c2C(F)(F)F)C1 [Compound 166]
5 | < 100 | O=C(c1cccc(Oc2n[nH]c(=O)c(C(F)(F)F)c2C2CC2)c1)N1CCN(c2ncc(C(F)(F)F)cn2)CC1 [Compound 173]
6 | < 100 | O=C(c1cccc(Oc2n[nH]c(=O)c(C(F)(F)F)c2N2CC3(CC(F)C3)C2)c1)N1CCN(c2ncc(C(F)(F)F)cn2)CC1 [Compound 176]
7 | < 100 | O=C(c1cccc(Oc2n[nH]c(=O)c(C(F)(F)F)c2N2CC3(CCC3)C2)c1)N1CCN(c2ccc(C3CC3)cn2)CC1 [Compound 177]
8 | < 100 | O=C(c1cccc(Oc2n[nH]c(=O)c(C(F)(F)F)c2N2CC3(CCC3)C2)c1)N1CCN(c2ccc(Cl)cn2)CC1 [Compound 182]
9 | < 100 | C#CC1CN(c2c(Oc3cccc(C(=O)N4CCN(c5ncc(C(F)(F)F)cn5)CC4)c3)n[nH]c(=O)c2C(F)(F)F)C1 [Compound 185]
10 | < 100 | O=C(c1cccc(Oc2n[nH]c(=O)c(C(F)(F)F)c2N2CC3(CCC3)C2)c1)N1CCN(c2ccc(C(F)(F)F)cn2)CC1 [Compound 187]
11 | < 100 | O=C(c1cccc(Oc2n[nH]c(=O)c(C(F)(F)F)c2N2CC3(CCC3)C2)c1)N1CCN(c2cnc(C(F)F)cn2)CC1 [Compound 189]
12 | < 100 | O=C(c1cccc(Oc2n[nH]c(=O)c(C(F)(F)F)c2NCC2CC2)c1)N1CCN(c2ncc(C(F)(F)F)cn2)CC1 [Compound 204]
13 | < 100 | O=C(C[C@@H]1CN(c2n[nH]c(=O)c3ccc(N4CC(F)C4)cc23)CCO1)N1CCN(c2ncc(C(F)(F)F)cn2)CC1 [Compound 207]
14 | < 100 | O=C(c1cccc(Oc2n[nH]c(=O)c(C(F)(F)F)c2N2CC3(CCC3)C2)c1)N1CCN(c2ncc(C3CC3)cn2)CC1 [Compound 226]
15 | < 100 | O=C(c1cncc(Oc2n[nH]c(=O)c(C(F)(F)F)c2N2CC3(CCCO3)C2)c1)N1CCN(c2ncc(Cl)cn2)CC1 [Compound 234]
16 | < 100 | O=C(c1cncc(Oc2n[nH]c(=O)c(C(F)(F)F)c2N2CC3(C2)CC(F)(F)C3)c1)N1CCN(c2ncc(C(F)(F)F)cn2)CC1 [Compound 238]
17 | < 100 | C[C@H]1CN(C(=O)c2cccc(Oc3n[nH]c(=O)c(C(F)(F)F)c3N3CC4(CCO4)C3)c2)CCN1c1ncc(C(F)(F)F)cn1 [Compound 254]
18 | < 100 | C#Cc1cnc(N2CCN(C(=O)c3cccc(Oc4n[nH]c(=O)c(C(F)(F)F)c4N4CC5(CCCO5)C4)c3)CC2)nc1 [Compound 275]
19 | < 100 | O=C(c1cccc(Oc2n[nH]c(=O)c(C(F)(F)F)c2N2CC3(CCC3)C2)c1)N1CCN(c2ncc(OC(F)(F)F)cn2)CC1 [Compound 276]

The remaining lines, values behind:

Row | SMILES | IC50 [nM]
20 | O=C(c1cccc(Oc2n[nH]c(=O)c(C(F)(F)F)c2N2CC3(COC3)C2)c1)N1CCN(c2ncc(C(F)(F)F)cn2)CC1 [Compound 165] | < 100
21 | O=C(c1cccc(Oc2n[nH]c(=O)c(C(F)(F)F)c2NC2CC(F)(F)C2)c1)N1CCN(c2ncc(C(F)(F)F)cn2)CC1 [Compound 167] | < 100
22 | COCCNc1c(Oc2cccc(C(=O)N3CCN(c4ncc(C(F)(F)F)cn4)CC3)c2)n[nH]c(=O)c1C(F)(F)F [Compound 169] | < 100
23 | CNC1CC(Nc2c(Oc3cccc(C(=O)N4CCN(c5ncc(C(F)(F)F)cn5)CC4)c3)n[nH]c(=O)c2C(F)(F)F)C1 (centres unmarked) [Compound 171] | 100 to 1000
24 | CN(C)CCNc1c(Oc2cccc(C(=O)N3CCN(c4ncc(C(F)(F)F)cn4)CC3)c2)n[nH]c(=O)c1C(F)(F)F [Compound 172] | < 100
25 | CC1(C)CN(c2c(Oc3cccc(C(=O)N4CCN(c5ncc(C(F)(F)F)cn5)CC4)c3)n[nH]c(=O)c2C(F)(F)F)C1 [Compound 174] | < 100
26 | O=C(c1cccc(Oc2n[nH]c(=O)c(C(F)(F)F)c2N2CC3(C2)CC(F)(F)C3)c1)N1CCN(c2ncc(C(F)(F)F)cn2)CC1 [Compound 175] | < 100
27 | O=C(c1cccc(Oc2n[nH]c(=O)c(C(F)(F)F)c2N2CC3(CCC3)C2)c1)N1CCn2c(nnc2C(F)(F)F)C1 [Compound 178] | 100 to 1000
28 | O=C(c1cccc(Oc2n[nH]c(=O)c(C(F)(F)F)c2N2CC(C3CC3)C2)c1)N1CCN(c2ncc(C(F)(F)F)cn2)CC1 [Compound 180] | < 100
29 | CC1CN(c2c(Oc3cccc(C(=O)N4CCN(c5ncc(C(F)(F)F)cn5)CC4)c3)n[nH]c(=O)c2C(F)(F)F)C1 [Compound 181] | < 100
30 | CC(C)C1CN(c2c(Oc3cccc(C(=O)N4CCN(c5ncc(C(F)(F)F)cn5)CC4)c3)n[nH]c(=O)c2C(F)(F)F)C1 [Compound 183] | < 100
31 | COCC1CN(c2c(Oc3cccc(C(=O)N4CCN(c5ncc(C(F)(F)F)cn5)CC4)c3)n[nH]c(=O)c2C(F)(F)F)C1 [Compound 186] | < 100
32 | CO[C@H]1C[C@H](Nc2c(Oc3cccc(C(=O)N4CCN(c5ncc(C(F)(F)F)cn5)CC4)c3)n[nH]c(=O)c2C(F)(F)F)C1 [Compound 190] | < 100
33 | CO[C@H]1C[C@@H](Nc2c(Oc3cccc(C(=O)N4CCN(c5ncc(C(F)(F)F)cn5)CC4)c3)n[nH]c(=O)c2C(F)(F)F)C1 [Compound 191] | < 100
34 | COC[C@H]1C[C@@H]1Nc1c(Oc2cccc(C(=O)N3CCN(c4ncc(C(F)(F)F)cn4)CC3)c2)n[nH]c(=O)c1C(F)(F)F [Compound 198] | < 100
35 | O=C(c1cccc(Oc2n[nH]c(=O)c(C(F)(F)F)c2NC2CC3(COC3)C2)c1)N1CCN(c2ncc(C(F)(F)F)cn2)CC1 [Compound 202] | < 100
36 | O=C(c1cccc(Oc2n[nH]c(=O)c(C(F)(F)F)c2NCC2CCOCC2)c1)N1CCN(c2ncc(C(F)(F)F)cn2)CC1 [Compound 203] | < 100

Row | SMILES | IC50 [nM]
37 | O=C(c1cccc(Oc2n[nH]c(=O)c(C(F)(F)F)c2N2CC3(CCO3)C2)c1)N1CCN(c2ncc(C(F)(F)F)cn2)CC1 [Compound 212] | < 100
38 | CC1(C#N)CN(c2c(Oc3cccc(C(=O)N4CCN(c5ncc(C(F)(F)F)cn5)CC4)c3)n[nH]c(=O)c2C(F)(F)F)C1 [Compound 213] | < 100
39 | CCOC1CN(c2c(Oc3cccc(C(=O)N4CCN(c5ncc(C(F)(F)F)cn5)CC4)c3)n[nH]c(=O)c2C(F)(F)F)C1 [Compound 214] | < 100
40 | O=C(c1cccc(Oc2n[nH]c(=O)c(C(F)(F)F)c2OCC2CCOCC2)c1)N1CCN(c2ncc(C(F)(F)F)cn2)CC1 [Compound 217] | < 100
41 | O=C(c1cccc(Oc2n[nH]c(=O)c(C(F)(F)F)c2N2CC3(CCC3)C2)c1)N1CCN(c2nnc(C(F)(F)F)s2)CC1 [Compound 231] | < 100
42 | O=C(c1cncc(Oc2n[nH]c(=O)c(C(F)(F)F)c2N2CC3(CCCO3)C2)c1)N1CCN(c2ncc(C(F)(F)F)cn2)CC1 [Compound 233] | < 100
43 | N#Cc1ccc(N2CCN(C(=O)c3cncc(Oc4n[nH]c(=O)c(C(F)(F)F)c4N4CC5(C4)CC(F)(F)C5)c3)CC2)nc1 [Compound 237] | < 100
44 | COC1CN(c2c(Oc3cncc(C(=O)N4CCN(c5ncc(C(F)(F)F)cn5)CC4)c3)n[nH]c(=O)c2C(F)(F)F)C1 [Compound 239] | < 100
45 | O=C(CC1CN(c2n[nH]c(=O)c3c(F)cc(Cl)cc23)CCO1)N1CCN(c2ncc(C(F)(F)F)cn2)CC1 (centres unmarked) [Compound 242] | < 100
46 | N#Cc1ccc2c(N3CCOC(CC(=O)N4CCN(c5ncc(C(F)(F)F)cn5)CC4)C3)n[nH]c(=O)c2c1 (centres unmarked) [Compound 243] | 100 to 1000
47 | O=C(c1cccc(Oc2n[nH]c(=O)c(C(F)(F)F)c2N2CC3(CCO3)C2)c1)N1CCN(c2ncc(C(F)(F)F)cn2)C2(CC2)C1 [Compound 253] | < 100
48 | C[C@H]1CN(c2ncc(C(F)(F)F)cn2)CCN1C(=O)c1cccc(Oc2n[nH]c(=O)c(C(F)(F)F)c2N2CC3(CCO3)C2)c1 [Compound 255] | < 100
49 | O=C(c1cccc(Oc2n[nH]c(=O)c(C(F)(F)F)c2N2CC3(CCO3)C2)c1)N1CC2CCC(C1)N2c1ncc(C(F)(F)F)cn1 [Compound 257] | < 100
50 | N#Cc1cnc(N2CCN(C(=O)c3cc(Oc4n[nH]c(=O)c(C(F)(F)F)c4N4CC5(CCC5)C4)ccn3)CC2)nc1 [Compound 273] | < 100
51 | N#Cc1ccc(N2CCN(C(=O)c3cc(Oc4n[nH]c(=O)c(C(F)(F)F)c4N4CC5(CCC5)C4)ccn3)CC2)nc1 [Compound 274] | < 100
52 | O=C(c1cncc(Oc2n[nH]c(=O)c(C(F)(F)F)c2N2CC3(C2)CC(F)(F)C3)c1)N1CCN(c2ncc(Cl)cn2)CC1 [Compound 277] | < 100
53 | O=C(c1cncc(Oc2n[nH]c(=O)c(C(F)(F)F)c2N2CC(C3CC3)C2)c1)N1CCN(c2ncc(C(F)(F)F)cn2)CC1 [Compound 278] | < 100
